In ChEMBL document CHEMBL3407403, “Synthetic modification of hydroxychavicol by Mannich reaction and alkyne-azide cycloaddition derivatives depicting cytotoxic potential” (Eur J Med Chem, 2015):

Legend:
[1] = tested on: MCF7; test: Growth inhibition of human MCF7 cells after 72 hrs by MTT assay; type: functional, cell-based; details: MCF7, 72 h
[2] = tested on: HepG2; test: Growth inhibition of human HepG2 cells at 50 uM after 72 hrs by MTT assay; type: functional; details: HepG2, 72 h, read-out: GI
[3] = tested on: MCF7; test: Growth inhibition of human MCF7 cells at 50 uM after 72 hrs by MTT assay; type: functional; details: MCF7, 72 h, read-out: GI
[4] = tested on: HepG2; test: Growth inhibition of human HepG2 cells at 30 uM after 72 hrs by MTT assay; type: functional; details: HepG2, 72 h, read-out: GI
[5] = Growth inhibition of human MIAPaCa2 cells at 30 uM after 72 hrs by MTT assay; type: functional; details: MIA PaCa-2, 72 h, read-out: GI
[6] = Growth inhibition of human HL60 cells after 24 hrs by MTT assay; type: functional, cell-based; details: HL-60, 24 h
[7] = Growth inhibition of human HL60 cells after 72 hrs by MTT assay; type: functional, cell-based; details: HL-60, 72 h
[8] = tested on: HepG2; test: Growth inhibition of human HepG2 cells after 72 hrs by MTT assay; type: functional, cell-based; details: HepG2, 72 h
[9] = Growth inhibition of human MIAPaCa2 cells after 72 hrs by MTT assay; type: functional, cell-based; details: MIA PaCa-2, 72 h
[10] = tested on: SK-N-SH; test: Growth inhibition of human SK-N-SH cells at 50 uM after 72 hrs by MTT assay; type: functional; details: read-out: GI
[11] = tested on: SK-N-SH; test: Growth inhibition of human SK-N-SH cells at 30 uM after 72 hrs by MTT assay; type: functional; details: read-out: GI
[12] = tested on: MCF7; test: Growth inhibition of human MCF7 cells at 30 uM after 72 hrs by MTT assay; type: functional; details: MCF7, 72 h, read-out: GI
[13] = tested on: SK-N-SH; test: Growth inhibition of human SK-N-SH cells after 72 hrs by MTT assay; type: functional, cell-based
[14] = Growth inhibition of human HL60 cells at 50 uM after 72 hrs by MTT assay; type: functional; details: HL-60, 72 h, read-out: GI
[15] = Growth inhibition of human HL60 cells at 30 uM after 72 hrs by MTT assay; type: functional; details: HL-60, 72 h, read-out: GI
[16] = Growth inhibition of human MIAPaCa2 cells at 50 uM after 72 hrs by MTT assay; type: functional; details: MIA PaCa-2, 72 h, read-out: GI

SMILES | IC50 [1] [µM] | inhibition of growth at 50 µM [2] [%] | inhibition of growth at 50 µM [3] [%] | inhibition of growth at 30 µM [4] [%] | inhibition of growth at 30 µM [5] [%] | IC50 [6] [µM] | IC50 [7] [µM] | IC50 [8] [µM] | IC50 [9] [µM] | inhibition of growth at 50 µM [10] [%] | inhibition of growth at 30 µM [11] [%] | inhibition of growth at 30 µM [12] [%] | IC50 [13] [µM] | inhibition of growth at 50 µM [14] [%] | inhibition of growth at 30 µM [15] [%] | inhibition of growth at 50 µM [16] [%]
C=CCc1cc(O)c(O)c(CN2CCC(Cc3ccccc3)CC2)c1 | 16 | 84 | 86.3 | 70.2 | 88.9 | 15 | 3 | 22 | 4 | 83.4 | 78.8 | 70.9 | 11 | 94.4 | 90.6 | 90.9
C=CCc1ccc(OCc2cn(-c3ccc(OC)cc3)nn2)c(O)c1 |  | 49.9 | 57.2 | 15.4 | 62.3 |  |  |  |  | 68.5 | 31.5 | 38.8 |  | 38.9 | 21.3 | 88.2
C=CCc1ccc(OCc2cn(-c3cccc([N+](=O)[O-])c3)nn2)c(O)c1 |  | 30.2 | 56.5 | 15.2 | 42.9 |  |  |  |  | 68.9 | 31.1 | 42.3 |  | 65.5 | 29.8 | 58.8
C=CCc1ccc(OCc2cn(-c3ccc(Br)cc3)nn2)c(O)c1 |  | 9.5 | 29.1 | 8.9 | 43.3 |  |  |  |  | 61.7 | 38.3 | 19.4 |  | 25.6 | 22.1 | 47.3
C=CCc1ccc(OCc2cn(-c3ccc(C#N)cc3)nn2)c(O)c1 |  | 12.1 | 35.6 | 1.5 | 39.3 |  |  |  |  | 62.5 | 37.5 | 35.7 |  | 31.8 | 20.8 | 45.9
C=CCc1cc(O)c(O)c(CN2CCC(C)CC2)c1 |  | 69.7 | 54.2 | 57.6 | 91.5 |  |  |  |  | 84.2 | 74.7 | 41.7 |  | 91.8 | 91.1 | 90.6
C#CCOc1ccc(CC=C)cc1O |  | 5.6 | 15.8 | 1.5 | 27.4 |  |  |  |  | 88.4 | 11.8 | 23.7 |  | 34.2 | 30.7 | 30.3
C=CCc1ccc(OCc2cn(-c3ccccc3CO)nn2)c(O)c1 |  | 8.5 | 40.4 | 4.2 | 39.6 |  |  |  |  | 87.1 | 12.9 | 34.5 |  | 47.1 | 31.7 | 52.1
C=CCc1ccc(OCc2cn(-c3cccc(C#N)c3)nn2)c(O)c1 |  | 3.4 | 33.4 | 2.3 | 26.6 |  |  |  |  | 78.8 | 21.2 | 31.9 |  | 30.9 | 22.5 | 41.6
C=CCc1cc(O)c(O)c(CN2CCN(c3ccc(C(C)=O)cc3)CC2)c1 |  | 65.9 | 47.1 | 46.1 | 86.2 |  |  |  |  | 54.6 | 53.8 | 42.8 |  | 89.2 | 87.9 | 75.1
C=CCc1cc(O)c(O)c(CN2CCOCC2)c1 |  | 6.5 | 48.9 | 2.1 | 54.4 |  |  |  |  | 86.1 | 49.6 | 33.5 |  | 90.5 | 89.8 | 67.5
C=CCc1ccc(OCc2cn(-c3cc(OC)c(OC)c(OC)c3)nn2)c(O)c1 |  | 2.5 | 38.1 | 1.2 | 41.1 |  |  |  |  | 55.9 | 44.1 | 37.3 |  | 41.4 | 32.8 | 49.8
C=CCc1cc(O)c(O)c(CN2CCN(C)CC2)c1 |  | 6.3 | 35.1 | 1.5 | 46.8 |  |  |  |  | 30.8 | 24.7 | 22.8 |  | 53.4 | 42.1 | 69.5
C=CCc1ccc(OCc2cn(-c3ccccc3Cl)nn2)c(O)c1 |  | 4.7 | 34.3 | 2.5 | 46.6 |  |  |  |  | 42.8 | 10.2 | 58.3 |  | 43.2 | 38.7 | 57.7
C=CCc1cc(O)c(O)c(CN2CCC(CCO)CC2)c1 |  | 2 | 33.3 | 2.5 | 54.4 |  |  |  |  | 40.6 | 15.3 | 21.4 |  | 52.1 | 39.4 | 71.8
C=CCc1cc(O)c(O)c(CN2CCC(CO)CC2)c1 |  | 5.4 | 32.3 | 4.7 | 34.1 |  |  |  |  | 49.4 | 21.9 | 26.2 |  | 43.3 | 37.7 | 38.6
C=CCc1ccc(OCc2cn(-c3ccc(C(=O)c4ccccc4)cc3)nn2)c(O)c1 |  | 16.2 | 35.6 | 14.8 | 40.1 |  |  |  |  | 58.1 | 41.9 | 40.3 |  | 40.5 | 38.3 | 53.7
